According to patent publication US7531575B2, “Method of modulating cellular activity and agents useful for same” (Eberhard-Karls-Universität Tübingin, priority 2002, dated 2009):

Columns and labels:
Type in all cases: cell-based, murine
IκBα = assay: phospho-IκBα immunoblot, IFN-γ-stimulated N9 microglia; settings: N9 cells, IFN-γ 200 u ml, tranilast 30-300 μM, 4 h preincubation
Method: Tranilast was a generous gift of Kissei Pharmaceuticals (Nagano, Japan). Murine recombinant IFN-γ was purchased from Boehringer (Mannheim, Germany). Dexamethasone (DEX) was obtained from Sigma (Deisenhofen, Germany). N9 murine microglial cells were a kind gift from P. Ricciardi-Castagnoli (Milano, Italy) (Righi, M., Mori, L., De Libero, G., Sironi, M., Biondi, A., Mantovani, A., Donini, S. D. and Ricciardi-Castagnoli, P. Eur J Immunol 19(8):1443-1448, 1989). The cells were cultured in Dulbecco's modified Eagle's medium (DMEM) supplemented with 10% foetal calf serum (FCS), 2 mM glutamine and penicillin ([…])/streptomycin (100 μg ml), and maintained at 37° C. in an atmosphere of 5% CO2. Viability was assessed by crystal violet staining.
For the preparation of whole cell lysates, the cells were rinsed in phosphate-buffered saline (PBS), harvested, centrifuged at 1200×g, lysed in 0.1 M TRIS-HCl (pH 7.2) containing 0.1% NP40, 0.1 mM EDTA and 5 μg ml PMSF for 40 min on ice, and centrifuged at 10,000×g for 10 min. Protein concentration was determined using Biorad reagents with photometric analysis. Proteins (20 μg lane) were separated by 10-12% SDS-PAGE and electroblotted on nitrocellulose. qual protein loading was controlled by Ponceau S staining. […]

ERK-2 = assay: phospho-ERK-1/2 immunoblot, LPS-stimulated N9 microglia: ERK-2; settings: N9 cells, LPS 10 μg/mL 10 min
Text: (§1) TNL was a generous gift of Kissei Pharmaceuticals, LPC (Escherichia coli, 0127:BS), phorbol 12-myristate 13-acetate (PMA) and dexamethasone (DEX) were obtained from Sigma, BAY 11-7082 (BAY), NF-κB SN50 inhibitory peptide (SN50), GF 109203X (GFX) and rottlerin (ROT) were purchased from Biomol. PD098059 (PD) was obtained from Calbiochem. Purified murine interferon-γ (IFN-γ) was purchased from Roche Diagnostics. N9 murine microglial cells were a kind gift from P. Ricciardi-Castagnoli (Righi, M. et al. 1989 supra). Cells were cultured in Dulbecco's modified Eagle's medium (DMEM) supplemented with 10% fetal calf serum (FCS), 2 mM glutamine, penicillin (100 unit/mL) and streptomycin (100 μg/mL) and maintained at 37° in an atmosphere of 5% CO2. Viability was assessed by crystal violet staining.
(§2) For the preparation of whole cell lysates, the cells were lysed in 0.1 M Tris-HCl (pH 7.2) containing 0.1% NP40, 0.1 mM EDTA and 5 μg/mL phenylmethylsulphonyl fluoride. Twenty micrograms protein was separated by 10-12% SDS-PAGE and electroblotted on nitrocellulose membrane. Equal loading was controlled by Ponceau S staining. […]

p38 MAPK = assay: phospho-p38 immunoblot, LPS-stimulated N9 microglia; settings: N9 cells, LPS 10 μg/mL 10 min, TNL pre-incubation 1 hr
Text: as §1, §2

ERK-1 = assay: phospho-ERK-1/2 immunoblot, LPS-stimulated N9 microglia: ERK-1; settings: N9 cells, LPS 10 μg/mL 10 min, TNL pre-incubation 1 hr
Text: as §1, §2

MARCKS = assay: phospho-MARCKS immunoblot in N9 microglia; settings: N9 cells, co-exposed to TNL (pre-incubation 1 hr)
Text: as §1, §2

NF-κB = NF-κB reporter assay, IFN-γ-stimulated N9 microglia; settings: N9 cells, IFN-γ 200 u ml, tranilast 30-300 μM, 4 h preincubation
Method: N9 murine microglial cells were seeded in a 96-well plate (8×10^3 well) and allowed to adhere for 24 h. The cells were transfected with an NK-κB cis-reporter gene plasmid (PathDetect* no. 219077, Stratagene) which encodes firefly luciferase in a NF-κB-dependent-manner. For each transfection, 0.2 μg DNA and 0.6 μl FuGene (Roche, Mannheim, Germany) were used. The cells were either co-transfected with 0.02 μg of the pFC-Mekk positive control plasmid, included in the NF-κB cis-reporting system from Stratagene, or with the pcDNA-3 plasmid, to maintain a constant amount of total DNA. In order to assess the unspecific background, a control transfection with pcDNA-3 only was included in all experiments. After 24 h the cells were washed twice with PBS (0.12 M NaCl, 0.01 M NaH2PO4×H2O, 0.031 M K2HPO4) and lysed using 40 μl well of Cell Lysis Buffer (mM):tricine pH 7.8 40, NaCl 50, EDTA 2, MgSO4 1, DTT 5, 1% Triton* X-100, all from Sigma. To optimize lysis, a freeze-thaw cycle was performed. Then the lysate was transferred to a LumiNunc™ plate (Nunc, Roskilde, Denmark). Luciferase assay reagent (100 μl) containing (mM): tricine pH 7.8 40, MgSO4 10, EDTA 0.5, DTT 10, coenzyme A 0.5 and beetle luciferin 0.5, ([…]), (all from Sigma) were added and luminescence was measured in a LumimatPlus (EG&G Berthold, Pforzheim, Germany). […]

## COc1ccc(/C=C/C(=O)Nc2ccccc2C(=O)O)cc1OC [tranilast, 2-[[3-(3,4-dimethoxyphenyl)-1-oxo-2-propenyl]amino]benzoic acid]
IκBα
  IκB phosphorylation in response to IFN-γ: concentration-dependent suppression
ERK-2; 300 μM TNL
  reduction of phospho-ERK-2 (densitometry): 80%
ERK-2; TNL pre-incubation 1 hr, concentration series
  ERK-2 phosphorylation after LPS: concentration-dependent inhibition
p38 MAPK
  cellular phospho-p38 levels after LPS: did not alter
ERK-1
  phospho-ERK-1 protein level after LPS: remained unchanged
MARCKS
  MARCKS phosphorylation: inhibited
NF-κB
  NF-κB reporter gene activity in response to IFN-γ: concentration-dependent suppression
